Test results: patent US8080529B2, “Macrolides with anti-inflammatory activity” (Glaxo Group Limited, priority 2005, dated 2011)
Where two headings read alike, the source gives them in different places.

What was measured:
Format in all cases: cell-based
TNF-α = assay: Inhibition of TNF-α production by stimulated human peripheral blood leukocytes in vitro; conditions: Homo sapiens, Leukocyte, read-out: Percentage of inhibition of TNF-α production
Outline: (§1)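 Dextran-sedimented human PBL (3–5×10^6/well) preincubated 2 h at 37 °C with compounds at 50 μM or 10 μM, then stimulated overnight with LPS 2 μg/mL, PMA 1 μg/mL or zymosan 120 μg/mL. Supernatant cytokines quantified by sandwich ELISA; % inhibition versus stimulated untreated controls.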

IL-6 = assay: Inhibition of IL-6 production by stimulated human peripheral blood leukocytes in vitro; conditions: Homo sapiens, Leukocyte, read-out: Percentage of inhibition of IL-6 production
Outline: as §1

IL-8 = assay: Inhibition of IL-8 production by stimulated human peripheral blood leukocytes in vitro; conditions: Homo sapiens, Leukocyte, read-out: Percentage of inhibition of IL-8 production
Outline: as §1

A549 = assay: Cytotoxicity assay (MTT), A549 cell line; conditions: 24 h
Outline: (§2)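 Hep G2 and A549 cells were cultured 24 h at 37° C in RPM medium with test compounds at 50 μM and 12.5 μM. MTT was added for 0.5-2 h and formazan read at 490 nm. Growth value calculated as OD490 treated/OD490 nontreated ×100.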

[1] = test system: human peripheral blood mononuclear cells (PBMC); assay: Effects on human T-cell proliferation in vitro (3H-thymidine incorporation); conditions: Homo sapiens, PBMC, read-out: Percentage of inhibition of proliferation of stimulated PBMC
Description: The influence of the various test compounds at two different concentrations (50 μM and 10 μM) on cell proliferation of human peripheral blood mononuclear cells (PBMC) was assessed. […] The cells were pulsed with 1 μCi of ^3H-thymidine (Amersham, USA) per well during the last 18 h of the culture, and were harvested on the 96-well filter (Packard Bioscience, USA) using a multiple cell harvester (Packard, USA). The incorporation of ^3H-thymidine in activated cells were measured using TopCount NXT (Packard, USA). […] The positive control refers to LPS-, PMA- or zymosan-stimulated samples that were not treated with test compounds.

Hep G2 = assay: Cytotoxicity assay (MTT), Hep G2 cell line; conditions: 24 h
Outline: as §2

IL-1α = assay: Inhibition of IL-1 production by stimulated human peripheral blood leukocytes in vitro; conditions: Homo sapiens, Leukocyte, read-out: Percentage of inhibition of IL-1α production

SMILES: CC[C@H]1OC(=O)[C@H](C)[C@@H](O[C@H]2C[C@@](C)(OC)[C@@H](OC(=O)CCN(CC)CC)[C@H](C)O2)[C@H](C)[C@@H](O[C@@H]2O[C@H](C)C[C@H](N(C)C)[C@H]2O)[C@](C)(OC)C[C@@H](C)NC(=O)[C@H](C)[C@@H](O)[C@]1(C)O [Example 3, 4″-O-(3-Diethylamino-Propionyl)-6-O-methyl-8a-aza-8a-homoerythromycin A]
- inhibition at 10 µM (TNF-α; LPS-stimulated PBL): 72%
- inhibition at 10 µM (TNF-α; PMA-stimulated PBL): 91%
- inhibition at 10 µM (TNF-α; zymosan-stimulated PBL): 76%
- inhibition at 50 µM (TNF-α; LPS-stimulated PBL): 81%
- inhibition at 50 µM (TNF-α; PMA-stimulated PBL): 83%
- inhibition at 50 µM (TNF-α; zymosan-stimulated PBL): 96%
- inhibition at 10 µM (IL-6; LPS-stimulated PBL): 56%
- inhibition at 10 µM (IL-6; PMA-stimulated PBL): 60%
- inhibition at 10 µM (IL-6; zymosan-stimulated PBL): 44%
- inhibition at 50 µM (IL-6; LPS-stimulated PBL): 78%
- inhibition at 50 µM (IL-6; PMA-stimulated PBL): 66%
- inhibition at 50 µM (IL-6; zymosan-stimulated PBL): 74%
- inhibition at 10 µM (IL-8; LPS-stimulated PBL): 48%
- inhibition at 10 µM (IL-8; PMA-stimulated PBL): 30%
- inhibition at 10 µM (IL-8; zymosan-stimulated PBL): 32%
- inhibition at 50 µM (IL-8; LPS-stimulated PBL): 71%
- inhibition at 50 µM (IL-8; PMA-stimulated PBL): 22%
- inhibition at 50 µM (IL-8; zymosan-stimulated PBL): 16%
- Percentage of inhibition of cell growth (A549; 12.5 μM): 0%
- Percentage of inhibition of cell growth (A549; 50 μM): 0%
- inhibition at 10 µM ([1]; PHA): 2%
- inhibition at 50 µM ([1]; PHA): 75%
- inhibition at 10 µM ([1]; PMA + iono.): 17%
- inhibition at 50 µM ([1]; PMA + iono.): 81%
- Percentage of inhibition of cell growth (Hep G2; 12.5 μM): 0%
- Percentage of inhibition of cell growth (Hep G2; 50 μM): 0%
- inhibition at 10 µM (IL-1α; LPS-stimulated PBL): 87%
- inhibition at 10 µM (IL-1α; PMA-stimulated PBL): 73%
- inhibition at 10 µM (IL-1α; zymosan-stimulated PBL): 88%
- inhibition at 50 µM (IL-1α; LPS-stimulated PBL): 86%
- inhibition at 50 µM (IL-1α; PMA-stimulated PBL): 68%
- inhibition at 50 µM (IL-1α; zymosan-stimulated PBL): 91%

SMILES: CC[C@H]1OC(=O)[C@H](C)[C@@H](O[C@H]2C[C@@](C)(OC)[C@@H](OC(=O)CCN(CC)CC)[C@H](C)O2)[C@H](C)[C@@H](O[C@@H]2O[C@H](C)C[C@H](N(C)C)[C@H]2O)[C@](C)(OC)C[C@@H](C)C(=O)[C@H](C)[C@H]2NC(=O)O[C@@]21C [Example 9, 11,12-Carbamate-11,12-dideoxy-4″-O-(3-diethylamino-propionyl)-6-O-methyl-erythromycin A]
- inhibition at 10 µM (TNF-α; LPS-stimulated PBL): 73%
- inhibition at 10 µM (TNF-α; PMA-stimulated PBL): 93%
- inhibition at 10 µM (TNF-α; zymosan-stimulated PBL): 14%
- inhibition at 50 µM (TNF-α; LPS-stimulated PBL): 96%
- inhibition at 50 µM (TNF-α; PMA-stimulated PBL): 85%
- inhibition at 50 µM (TNF-α; zymosan-stimulated PBL): 72%
- inhibition at 10 µM (IL-6; LPS-stimulated PBL): 22%
- inhibition at 10 µM (IL-6; PMA-stimulated PBL): 30%
- inhibition at 10 µM (IL-6; zymosan-stimulated PBL): 0%
- inhibition at 50 µM (IL-6; LPS-stimulated PBL): 100%
- inhibition at 50 µM (IL-6; PMA-stimulated PBL): 95%
- inhibition at 50 µM (IL-6; zymosan-stimulated PBL): 100%
- inhibition at 10 µM (IL-8; LPS-stimulated PBL): 18%
- inhibition at 10 µM (IL-8; PMA-stimulated PBL): 0%
- inhibition at 10 µM (IL-8; zymosan-stimulated PBL): 0%
- inhibition at 50 µM (IL-8; LPS-stimulated PBL): 96%
- inhibition at 50 µM (IL-8; PMA-stimulated PBL): 94%
- inhibition at 50 µM (IL-8; zymosan-stimulated PBL): 91%
- Percentage of inhibition of cell growth (A549; 12.5 μM): 0%
- Percentage of inhibition of cell growth (A549; 50 μM): 0%
- inhibition at 10 µM ([1]; PHA): 91%
- inhibition at 50 µM ([1]; PHA): 100%
- inhibition at 10 µM ([1]; PMA + iono.): 17%
- inhibition at 50 µM ([1]; PMA + iono.): 100%
- Percentage of inhibition of cell growth (Hep G2; 12.5 μM): 4%
- Percentage of inhibition of cell growth (Hep G2; 50 μM): 15%
- inhibition at 10 µM (IL-1α; LPS-stimulated PBL): 72%
- inhibition at 10 µM (IL-1α; PMA-stimulated PBL): 69%
- inhibition at 10 µM (IL-1α; zymosan-stimulated PBL): 82%
- inhibition at 50 µM (IL-1α; LPS-stimulated PBL): 82%
- inhibition at 50 µM (IL-1α; PMA-stimulated PBL): 72%
- inhibition at 50 µM (IL-1α; zymosan-stimulated PBL): 0%
